# In the supplement of paper PMC10331698:
# ± gives the standard deviation of the averaged measurements.
# Columns and labels:
# Experiment in all cases: LOEC (log10 uM (lowest observed effect concentration))
# Perfluorooctanoic acid = compound: O=C(O)C(F)(F)C(F)(F)C(F)(F)C(F)(F)C(F)(F)C(F)(F)C(F)(F)F [Perfluorooctanoic acid]
# Protocol: (§1)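 BioMAP Diversity Plus panel in human primary cell co-cultures, 4 concentrations in duplicate blinded samples. Responses are log10 fold change versus DMSO control, processed with tcpl v2.1.0. A hit is called when responses at any concentration exceed the cutoff (the larger of 3*bmad or log10(1.2)); the lowest observed effect concentration (modl_ga, log10 uM) is reported for hits.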
# [1] = compound: OCCCC(F)(F)C(F)(F)C(F)(F)C(F)(F)C(F)(F)C(F)(F)C(F)(F)C(F)(F)F [3-(Perfluorooctyl)propanol]
# Protocol: as §1
# [2] = compound: C=CC(=O)OCC(F)(F)C(F)(F)C(F)(F)C(F)(F)C(F)(F)C(F)(F)C(F)(F)C(F)F [1H,1H,9H-Perfluorononyl acrylate]
# Protocol: as §1
# [3] = compound: FC(F)(I)C(F)(F)C(F)(F)C(F)(F)C(F)(F)C(F)(F)I [1,6-Diiodoperfluorohexane]
# Protocol: as §1
# Perfluoropinacol = compound: OC(C(F)(F)F)(C(F)(F)F)C(O)(C(F)(F)F)C(F)(F)F [Perfluoropinacol]
# Protocol: as §1
# [4] = compound: OCC(F)(F)C(F)(F)C(F)(F)C(F)(F)C(F)(F)C(F)(F)F [6:1 Fluorotelomer alcohol]
# Protocol: as §1
# [5] = compound: O=C(CC(=O)C(F)(F)C(F)(F)C(F)(F)F)c1cccs1 [(Perfluorobutyryl)-2-thenoylmethane]
# Protocol: as §1
# [6] = compound: C=CC(=O)OCC(F)(F)C(F)(F)C(F)(F)C(F)(F)COC(=O)C=C [1H,1H,6H,6H-Perfluorohexane-1,6-diol diacrylate]
# Protocol: as §1
# [7] = compound: OCCC(F)(F)C(F)(F)C(F)(F)C(F)(F)C(F)(F)C(F)(F)C(F)(F)C(F)(F)F [8:2 Fluorotelomer alcohol]
# Protocol: as §1
# [8] = compound: OCC(F)(F)C(F)(F)C(F)(F)C(F)(F)C(F)(F)C(F)(F)C(F)(F)C(F)(F)CO [1H,1H,10H,10H-Perfluorodecane-1,10-diol]
# Protocol: as §1
# [9] = compound: OCC(F)(F)C(F)(F)C(F)(F)C(F)(F)C(F)(F)C(F)(F)C(F)(F)C(F)(F)C(F)(F)C(F)(F)C(F)(F)F [11:1 Fluorotelomer alcohol]
# Protocol: as §1
Test System,LOEC (log10 uM) (Perfluorooctanoic acid),LOEC (log10 uM) [1],LOEC (log10 uM) [2],LOEC (log10 uM) [3],LOEC (log10 uM) (Perfluoropinacol),LOEC (log10 uM) [4],LOEC (log10 uM) [5],LOEC (log10 uM) [6],LOEC (log10 uM) [7],LOEC (log10 uM) [8],LOEC (log10 uM) [9]
3C IL8 up,1.78,,,,,,,,,,
3C Thrombomodulin down,,1.78,1.54 ± 0.34,,,,,,,,
4H Pselectin down,,1.3,,1.3,1.3,1.78,1.3,1.07 ± 0.32,1.3,,
4H SRB down,,1.3,,1.54 ± 0.34,1.3,,1.3,1.3,1.3,,
4H VCAM1 down,,1.54 ± 0.34,,1.3,1.3,,1.3,1.3,1.54 ± 0.34,1.78,
4H uPAR down,,1.54 ± 0.34,,1.78,1.07 ± 0.32,,1.78,1.78,1.3,,
BE3C EGFR down,,1.78,,1.78,,,1.31 ± 0.66,1.54 ± 0.34,,1.78,
BE3C HLADR down,,1.78,,1.54 ± 0.34,1.78,,1.3,1.3,1.3,1.3,-0.46 ± 0.34
BE3C ICAM1 down,,1.78,,1.78,,,1.3,1.54 ± 0.34,1.54 ± 0.34,1.78,
BE3C IL1a down,,1.78,,1.78,1.3,,1.3,1.07 ± 0.32,1.3,,
BE3C IL8 down,,1.3,,1.78,1.3,,1.78,1.3,1.3,1.54 ± 0.34,-0.222
BE3C ITAC down,,1.78,,1.54 ± 0.34,1.78,,1.3,1.78,1.3,1.3,
BE3C MMP9 down,,1.78,,1.78,1.78,,1.3,1.54 ± 0.34,1.3,1.78,-0.222
BE3C PAI1 down,,1.78,,1.54 ± 0.34,1.07 ± 0.32,,0.301,,1.3,1.78,
BE3C tPA down,,1.78,,1.78,1.3,,1.3,1.54 ± 0.34,1.3,,
BE3C uPA down,,1.78,,1.78,1.78,,1.78,1.54 ± 0.34,1.78,,
BE3C uPAR down,,1.78,,1.78,1.3,,1.78,1.78,1.54 ± 0.34,1.78,
BF4T Eotaxin3 down,,1.54 ± 0.34,,1.3,1.3,,0.845,1.78,1.3,1.78,
BF4T ICAM1 down,,1.3,,1.07 ± 0.32,,,1.78,1.3,1.78,1.3,

Test System,LOEC (log10 uM) (Perfluorooctanoic acid),LOEC (log10 uM) [1],LOEC (log10 uM) [2],LOEC (log10 uM) [3],LOEC (log10 uM) (Perfluoropinacol),LOEC (log10 uM) [4],LOEC (log10 uM) [5],LOEC (log10 uM) [6],LOEC (log10 uM) [7],LOEC (log10 uM) [8],LOEC (log10 uM) [9]
BF4T MMP9 down,,1.3,,1.07 ± 0.32,,,1.3,1.54 ± 0.34,1.3,1.78,
BF4T PAI1 down,,1.3,,1.07 ± 0.32,1.3,,1.3,,1.78,1.3,
BF4T SRB down,,1.3,,1.3,,,1.78,,1.54 ± 0.34,1.78,
BF4T VCAM1 down,,1.3,,1.3,1.78,,1.3,0.845,1.07 ± 0.32,1.3,
BF4T tPA down,1.31 ± 0.66,1.3,,0.845,,,0.573 ± 0.39,1.3,1.07 ± 0.32,1.3,
BT Bcell Proliferation up,1.78,,,,,,,,,,
BT PBMCCytotoxicity down,,1.54 ± 0.34,1.3,1.78,1.78,,1.78,0.845,1.54 ± 0.34,1.78,-0.199 ± 0.71
BT PBMCCytotoxicity up,1.78,,,,,,,,,,
BT xIL2 down,,1.78,,1.54 ± 0.34,1.78,,1.78,0.845,1.3,1.78,
BT xIL6 down,,1.54 ± 0.34,1.54 ± 0.34,1.78,,,1.54 ± 0.34,0.845,1.78,1.78,
BT xIL17A down,,1.3,1.54 ± 0.34,1.78,1.3,,1.3,0.845,1.78,1.78,
BT xIL17F up,,,,,,,,,,,-1.22
CASM3C HLADR down,,1.78,,1.3,1.07 ± 0.32,,1.78,1.54 ± 0.34,1.3,,
CASM3C MCSF down,,1.3,,1.3,1.78,,1.78,1.07 ± 0.32,1.54 ± 0.34,,
CASM3C MIG down,,1.3,,1.3,1.78,,1.54 ± 0.34,0.845,1.78,,
CASM3C SRB down,,1.54 ± 0.34,,1.3,1.78,,1.78,1.78,1.78,,
CASM3C VCAM1 down,,1.07 ± 0.32,1.07 ± 0.32,1.3,1.78,,1.54 ± 0.34,0.845,1.07 ± 0.32,1.78,
CASM3C uPAR down,,1.78,,1.78,1.54 ± 0.34,,1.78,1.78,1.78,,
IMphg CD40 down,,1.3,,1.3,1.3,,1.3,1.3,1.78,1.54 ± 0.34,0.301
